Reference: patent EP1129187B1, “NEW FAMILY OF MAMMALIAN POTASSIUM CHANNELS, THEIR CLONING AND THEIR USE, ESPECIALLY FOR THE SCREENING OF DRUGS” (CENTRE NATIONAL DE LA RECHERCHE SCIENTIFIQUE (CNRS), priority 1998, dated 2000)
Like-named read-outs stand apart in the source and are kept apart here.

How the values were obtained:
[1] = target: T1, human TWIK-1 K+ channel, SEQ ID NO: 2 (Homo sapiens, UniProt O00180); experiment: TWIK-1 K+ currents, two-electrode voltage clamp in Xenopus oocytes injected with TWIK-1 cRNA; format: cell-based
T1 construct: expressed in transfected cells; host or cells: Xenopus laevis oocytes injected with cRNA transcribed from pEXO-TWIK-1
T1 sequence (O00180 1-336): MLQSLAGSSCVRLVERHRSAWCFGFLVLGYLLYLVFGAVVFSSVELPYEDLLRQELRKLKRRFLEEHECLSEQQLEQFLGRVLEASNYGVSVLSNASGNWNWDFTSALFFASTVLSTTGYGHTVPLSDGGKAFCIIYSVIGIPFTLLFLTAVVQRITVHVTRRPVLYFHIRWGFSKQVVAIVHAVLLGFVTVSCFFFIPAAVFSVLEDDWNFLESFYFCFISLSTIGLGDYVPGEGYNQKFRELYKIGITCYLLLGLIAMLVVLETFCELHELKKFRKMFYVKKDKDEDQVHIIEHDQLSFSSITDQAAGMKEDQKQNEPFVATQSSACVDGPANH
Procedure: For the functional study, the coding sequence of TWIK-1 was inserted between the noncoding sequences 5' and 3' of Xenopus globin in the vector pEXO (Lingueglia, E. et al., 1993, J. Biol. Chem., 269, 13736-13739). A complementary RNA (cRNA) was transcribed of this construction and injected in the oocytes of X laevis. In a 0.3ml perfusion chamber, a single oocyte was impaled on two standard glass microelectrodes (0.5 - 2.0 MW) charged with 3 M KCI and maintained under voltage-clamp with a Dagan TEV200 amplifier. The bath solution contained 98 mM KCl,1.8 raM CaCl2 […] and 5 mM HEPES at pH 7.4 with KOH. Stimulation of the preparation, data acquisition and analyses were carried out with the pClamp program (Axon Instruments) USA3.
Intracellular acidification of the oocytes was produced using two methods: • superfusion with a solution enriched in CO2 which produces acidification by a mechanism involving the bicarbonate transport system (Guillemare, E. et al., 1995, Mol. Pharmacol., 47, 588-594); • treatment with dinitrophenol (DNP), which is a metabolic inhibitor that decouples the H+ gradient in mitochondria and induces internal acidity (Pedersen, P. L. and Carafoli, E., 1997, Trends Biol. Sci., 12, 146-189).
Phosphorylation or dephosphorylation of specific amino acid residues is an important mechanism of regulation of the ionic channels (Levitan, I. B., 1994, Annul Rev. Physiol., 56, 193-212).

[2] = target: T2, human TASK-2 K+ channel, SEQ ID NO: 28 (Homo sapiens, UniProt O95279); experiment: TASK-2 currents elicited by voltage pulses to +50 mV, whole cell recording in transfected COS cells; format: cell-based
T2 construct: expressed in transfected cells; host or cells: COS cells transiently transfected with pIREScd8-TASK-2 (DEAE-dextran)
T2 sequence (O95279 1-499): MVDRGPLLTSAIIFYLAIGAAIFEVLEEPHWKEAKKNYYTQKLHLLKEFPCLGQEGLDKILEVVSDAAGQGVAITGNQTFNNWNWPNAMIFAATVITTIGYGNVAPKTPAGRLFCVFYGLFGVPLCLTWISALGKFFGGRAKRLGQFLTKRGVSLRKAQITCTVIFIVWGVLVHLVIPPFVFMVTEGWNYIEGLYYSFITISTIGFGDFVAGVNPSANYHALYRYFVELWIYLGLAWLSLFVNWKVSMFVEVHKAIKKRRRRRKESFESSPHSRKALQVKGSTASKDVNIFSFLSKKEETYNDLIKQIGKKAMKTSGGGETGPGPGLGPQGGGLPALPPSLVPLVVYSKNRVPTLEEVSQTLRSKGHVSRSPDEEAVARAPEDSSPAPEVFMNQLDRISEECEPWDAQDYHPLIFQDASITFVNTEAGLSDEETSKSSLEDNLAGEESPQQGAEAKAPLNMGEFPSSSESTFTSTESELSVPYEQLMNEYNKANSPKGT
Procedure: For patch clamp analyses, a NotI/EcoRI fragment of 3.2 kb was excised from pBS-TASK 2 and subcloned into the pIRES-CD8 vectorto givepIREScdB-TASK-2. ThepIRES-CD8 vector was obtained by replacing the neo^R gene in the original vector pIRESneo (Clontech) by the coding sequence of the T type lymphocyte's surface marker CD8. COS cells were seeded at a density of 20,000 cells per 35 mm dishes 24 h prior to transfection. Cells were then transiently transfected by the classical DEAE-dextian method with 1 µg of prREScdB-TASK-2 plasmid per 35 mm dish. Transiently-transfected cells were visualized 48 h after transfection using the anti-CD8 antibody coated beads method (24). For whole cell recordings, the internal solution contained 150 mM KCI, 3 mM MgCl2, 5 mM EGTA, and 10 mM HEPES at pH 7.2 with KOH, and he external solution 150 mM NaCl, 5 mM KCI, 3 mM MgCl2 1 mM CaCl2, 10 mM HEPES at pH 7.4 with NaOH.
The effects of various pharmacological agents on currents elicited by voltage pulses to +50 mV have been studied in TASK-2-exprcssing. COS cells.

[3] = target: T1, human TWIK-1 K+ channel, SEQ ID NO: 2; experiment: TWIK-1 single channel activity, excised patch from Xenopus oocytes; format: cell-based; conditions: perfusion of the excised patch with 10 mM
Procedure: The pipettes were filled with a strong K+ solution (40 mM KCl, 100 mM of potassium methane sulfonate, 1.8 mM CaCl2, 2 m M MgCl2 and 5 mM HEPES adjusted to pH 7.4 with KOH). 100 µM of GdCl3 was added to the pipette solution to inhibit the action of the […]. The inside-out patches were perfused with a solution containing 140 mM KC1,10 mM CaCl2, 5 mM HEPES adjusted to pH 7.2 with KOH and 5 m M EGTA added daily. The single channel signals were filtered at 3.5 kHz and analyzed with the Biopatch program (Big-Logic, Grenoble, France).
With 3 mM of internal Mg^2+, the mean duration of opening at +80 mV is 1.9 ms and the unitary conductance is 19 +/- 1 pS (Figure 5c). At -80 mV, the channels are oscillating with a mean duration of opening of 0.3 ms, and a conductance value in creasing to 34 pS. […] In contrast to numerous channels which require the presence of ATP for their activity in the excised patch configuration, ATP is not required for the expression of TWIK-1.

[4] = target: human TASK1 K+ channel, SEQ ID NO: 4 (Homo sapiens, UniProt O14649); experiment: TASK1 currents elicited by voltage pulses to +50 mV, two-electrode voltage clamp in Xenopus oocytes; format: cell-based; conditions: for inhibition at 100 µM: read-out: TASK1 currents inhibited
Procedure: For functional studies, TASK1 cRNAs were injected into Xenopus oocytes. This was accomplished by subcloning a 2480 bp SmaI/XhoI fragment from pBS-hT ASK containing 14 bp of 5' UTR, the coding sequence and the entire 3' UTR into the pEXO vector (Lingueglia et al., 1993) to give pEXO-TASK1. Capped-cRNAs were synthesised in vitro from the linearized plasmid by using the T7 RNA polymerase (Stratagene). Xenopus laevis were purchased from CRBM (Montpellier, France). Preparation and cRNA injection of oocytes has been described elsewhere (Guillemare et al., 1992). Oocytes were used for electrophysiological studies 2 to 4 days following injection (20 ng/oocyte). In a 0.3 ml perfusion chamber, a single oocyte was impaled with two standard microelectrodes (1-2.5 Mn resistance) filled with 3 M KCI and maintained under voltage clamp by using a Dagan TEV 200 amplifier, in standard ND96 solution (96 mM NaC1. 2 mM KCI, 1.8 mM CaCI2, 2 mM MgCl2, 5 mM HEPES, pH 7.4 with NaOH). In some experiments, NaCl was substituted with TMA Cl (Tetra Methyl Ammonium Chloride). Stimulation of the preparation, data acquisition, and analysis were performed using pClamp software (Axon instruments, USA). Drugs were applied externally by addition to the superfusate (flow rate: 3 ml/min) or intracellularly injected by using a pressure microinjector (Inject+Matic, Switzedand). All experiments were performed at room temperature (21-22 °C).
Figure 12A presents the I-V relationships of the current in K^+-rich solutions ranging from 2 mM to 98 mM. […] The theoretical I-V relationships in various [K^+]out calculated according to the Goldman-Hodgkin-Katz current equation are shown in Figure 12D. […] The effect of various pharmacological agents on currents elicited by voltage pulses to +50 mV has been studied in TASK1-expressing oocytes.

[5] = target: TWIK-1 (Tandem of P domains in a Weak Inward rectifying K+ channel) (human); experiment: cell-based or functional assay
[6] = read-out: inhibition of TWIK-1 currents
[7] = COS, read-out: inhibition of the TASK-2 current

Sequence of human TASK1 K+ channel, SEQ ID NO: 4 (O14649 whole entry, the tested form may be a part): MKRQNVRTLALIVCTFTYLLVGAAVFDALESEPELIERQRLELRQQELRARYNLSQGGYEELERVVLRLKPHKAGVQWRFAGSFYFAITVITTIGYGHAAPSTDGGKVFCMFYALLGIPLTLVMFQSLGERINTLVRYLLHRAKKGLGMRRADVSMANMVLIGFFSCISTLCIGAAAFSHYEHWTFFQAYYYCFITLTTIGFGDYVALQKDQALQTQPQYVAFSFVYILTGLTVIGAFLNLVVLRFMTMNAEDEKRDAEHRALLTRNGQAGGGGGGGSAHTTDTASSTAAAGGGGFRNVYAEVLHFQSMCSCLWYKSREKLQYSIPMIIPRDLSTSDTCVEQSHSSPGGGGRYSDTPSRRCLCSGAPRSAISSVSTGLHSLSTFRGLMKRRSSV
Sequence of charybdotoxine (P13487 23-59 limits assumed): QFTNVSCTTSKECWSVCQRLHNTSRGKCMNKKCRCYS

Nc1ccncc1 [4-aminopyridine]
inhibition at 1000 µM ([1]; at 1 mM, read-out: inhibition of TWIK-1 currents): < 10% | effect on TASK-2 currents ([2]; 100 µM): inactive

Nc1ncnc2c1nc(Cl)n2[C@@H]1O[C@@H]2COP(=O)(O)O[C@H]2[C@H]1O [8-Cl-AMPc, 8-chloro cAMP]
effect on the activity of TWIK-1 ([1]; 300 µM, activation of protein kinase A): does not affect | sensitivity of TASK-2 currents ([2]; perfusion of 500 µM): insensitive

CNc1ccc2oc(C[C@H]3O[C@@]4(CC[C@H]3C)O[C@H]([C@H](C)C(=O)c3ccc[nH]3)[C@H](C)C[C@H]4C)nc2c1C(=O)O [A23187]
effect on the properties of the TWIK-1 channel [1]: without effect

Nc1ncnc2c1ncn2[C@@H]1O[C@H](COP(=O)(O)OP(=O)(O)OP(=O)(O)O)[C@@H](O)[C@H]1O [ATP]
effect on the activity of the TWIK-1 channel [3]: does not induce any effect

O=[N+]([O-])c1ccc(O)c([N+](=O)[O-])c1 [DNP, dinitrophenol]
inhibition at 1000 µM ([1]; DNP 1 mM, intracellular acidification, % of the control amplitude, read-out: reduction in the TWIK-1 currents): 80%

O=C(O)CN(CCOCCOCCN(CC(=O)O)CC(=O)O)CC(=O)O [EGTA]
sensitivity of TASK1 currents ([4]; injection of 100 mM, internal Ca2+ change): insensitive

CC(C)Cn1c(=O)n(C)c(=O)c2[nH]cnc21 [IBMX]
sensitivity of TASK1 currents ([4]; IBMX 1 mM perfused together with forskolin 10 µM, activation of adenyl cyclase): insensitive | sensitivity of TASK-2 currents ([2]; IBMX 1 mM in a cocktail with forskolin 10 µM, increasing intracellular cAMP): insensitive

CCCCCCCCCC(=O)O[C@@H]1[C@@H](C)[C@@]2(O)[C@@H](C=C(CO)C[C@@]3(O)C(=O)C(C)=C[C@@H]23)[C@@H]2C(C)(C)[C@]12OC(=O)CCCCCCCCC [PDA, 4α-phorbol-12, 13 didecanoate]
effect on TWIK-1 currents [1]: no effect

CC[N+](CC)(CC)CC [TEA, tetraethylammonium]
inhibition at 20000 µM [1, 6]: 30% | effect on TASK-2 currents ([2]; 1 mM): inactive

CCCCc1oc2ccccc2c1C(=O)c1cc(I)c(OCCN(CC)CC)c(I)c1 [amiodarone]
inhibition at 100 µM [1, 6]: < 10%

CCCCC/C=C\C/C=C\C/C=C\C/C=C\CCCC(=O)O [arachidonic acid]
sensitivity of TASK-2 ([2]; 10 µM): not sensitive

CCCCN1CCCCC1C(=O)Nc1c(C)cccc1C (stereo not shown) [bupivacaïne]
inhibition at 1000 µM ([2]; COS, 1 mM, n = 4, read-out: inhibition of the TASK-2 current): 80.9%

CCCCCCC[N+](CC)(CC)CCCCc1ccc(Cl)cc1 [clofilium]
inhibition at 30 µM [1]: < 10%

CC1(C)Oc2ccc(C#N)cc2C(N2CCCC2=O)C1O (stereo not shown) [cromakaline]
sensitivity of the TWIK-1 channel to K+ channel opener ([1]; 140 µM): not sensitive

COc1ccc(Cl)cc1C(=O)NCCc1ccc(S(=O)(=O)NC(=O)NC2CCCCC2)cc1 [glibenclamide]
inhibition at 30 µM [1]: < 10%

O=P(O)(O)O[C@@H]1[C@H](O)[C@H](O)[C@@H](OP(=O)(O)O)[C@H](OP(=O)(O)O)[C@H]1O [inositol triphosphate]
sensitivity of TASK1 currents ([4]; injection of 1 mM, internal Ca2+ change): insensitive

CCN(CC)CC(=O)Nc1c(C)cccc1C [lidocaine]
inhibition at 1000 µM [2, 7]: 60.4 ± 1.5%

CC(N/C(=N\C#N)Nc1ccncc1)C(C)(C)C (stereo not shown) [pinacidil]
sensitivity of the TWIK-1 channel to K+ channel opener ([1]; 100 µM): not sensitive

CCN(CC)CCCC(C)Nc1c2ccc(Cl)cc2nc2ccc(OC)cc12 (stereo not shown) [quinacrine]
inhibition at 100 µM [4]: < 20%

C=C[C@H]1C[N@@]2CC[C@H]1C[C@@H]2[C@@H](O)c1ccnc2ccc(OC)cc12 [quinidine]
inhibition at 100 µM [4]: < 20%

C=C[C@H]1C[N@@]2CC[C@H]1C[C@H]2[C@H](O)c1ccnc2ccc(OC)cc12 [quinine]
inhibition at 100 µM [4]: < 20% | IC50 [2]: 22.4 ± 1.8 µM | inhibition at 100 µM [2, 7]: 65 ± 3.8%

C1CCC2(C1)C1CN(CC3CC3)CC2CN(CC2CC2)C1 [tedisamil]
inhibition at 100 µM ([1]; at 100 µM, read-out: inhibition of TWIK-1 currents): 30%

apamin (from UniProt P01500 28-45) (peptide)
inhibition of TWIK-1 K+ currents (two-electrode voltage clamp, Xenopus oocytes) [5]: < 10%

charybdotoxine (from UniProt P13487 23-59) (peptide)
inhibition of TWIK-1 K+ currents (two-electrode voltage clamp, Xenopus oocytes) [5]: < 10%

dedrotoxine (peptide)
inhibition of TWIK-1 K+ currents (two-electrode voltage clamp, Xenopus oocytes) [5]: < 10%
